{
  "source": "patent US10920506B2",
  "about": "“Methods for wellbore milling operations” (STEP ENERGY SERVICES LTD., priority 2018, dated 2021)",
  "key": {"[1]": {"experiment": "IBDU dissolution time with citric acid accelerator (Accelerator HT)", "format": "physicochemical", "details": "2 bag pill, 45 kg/m3 IBDU in water or brine", "description": "(§1) Operations: • When milling in an underpressured well (i.e. hydrostatic pressure is greater than bottom hole pressure), or when there are indications of possible or actual lost circulation. • Add two bags of 100 Mesh IBDU such as STEPvert LT™ available from STEP Energy Services Ltd. to fluid in a displacement tank (45 kg/m^3), engage agitation paddle to maximum RPM (if paddle is not spinning fast enough to mix fluid, increase paddle speed) to ensure mixing. Continue mixing or, as noted above, displace while IBDU is added. • To avoid the IBDU settling out prior to arriving downhole, adjust the fluid if necessary to increase the carrying capacity of the fluid such that solid IBDU is able to remain suspended for the period of time it takes to get downhole. This may be achieved by pump rate and/or addition of viscosifiers. Thus, to better suspend solids: • A gelling agent is added: For example liquid gel hydroxyethyl cellulose 5 L/m^3 (2 kg/m^3 if dry gel) is added to the displacement tank with a target hydration time of 3 minutes; and/or • Slowly pour IBDU into the mixing tub while displacing to ensure no product settles out. • Add a degradation accelerator if needed. Consider Table 1 where IBDU solubility is summarized with and without a citric acid accelerator based on 45 kg/m3 loading of IBDU in water or brine:\n• Generally if the formation temperature is less than 90° C., use a degradation accelerator, such as a resin coated citric acid such as Accelerator HT™ available from STEP Energy Services Ltd. The citric acid reduces pH in order to reduce degradation time of the IBDU. The resin coating ensures that the citric acid substantially will not begin to act until it reaches formation temperature. The resin breaks down to expose the acid and the acid then reduces pH and expedites degradation. • The pill of the IBDU, possibly including degradation accelerator, is launched. If a twin pump is employed, pump only through one fluid end and isolate the idle side. This ensures diverter only enters one side of plumbing. This is an operational efficiency, where only one fluid end is exposed to diverter in case it collects in large quantities and holds a valve and seat open. By always keeping one side “clean” (no solids) operational risks are mitigated. • Maintain a minimum rate of at least about 0.2 m^3/min or possibly about 0.4 m^3/min through the single fluid end (higher rate is better to aid in carrying solids). If fluid is comingled with gas such as nitrogen, lower rates may be used. […] This ensures the fluid end has been properly flushed. • Track volume from when pill enters the coil to when it is expected to reach open formation. Record the time that each pill reaches formation/exits coil BHA on treatment report (include surface iron in volume calculation). In case a large pressure event occurs when the pill exits the downhole pump, only one pill is to be inside coil at any given time."}, "[2]": {"experiment": "IBDU solubility without accelerator, 2 bag STEPvert LT diversion pill in water or brine", "format": "physicochemical", "details": "45 kg/m3 loading of IBDU in water or brine", "description": "as §1, with “brine: […]” for “brine:”"}, "[3]": {"details": "50° C., Accelerator HT Loading 5 kg"}, "[4]": {"details": "60° C., Accelerator HT Loading 4 kg"}, "[5]": {"details": "70° C., Accelerator HT Loading 2 kg"}, "[6]": {"details": "80° C., Accelerator HT Loading 1 kg"}, "[7]": {"details": "90° C., Accelerator HT Loading 0 kg"}},
  "data": [
    {"smiles": "CC(C)C(NC(N)=O)NC(N)=O", "note": "[STEPvert LT, isobutylidene diurea]", "values": [
      {"measurement": "50% Dissolution Time", "setting": "[1]; [3]", "value": 1.5, "unit": "days"},
      {"measurement": "100% Dissolution Time", "setting": "[1]; [3]", "value": 5, "unit": "days"},
      {"measurement": "50% Dissolution Time", "setting": "[1]; [4]", "value": 1, "unit": "days"},
      {"measurement": "100% Dissolution Time", "setting": "[1]; [4]", "value": 3, "unit": "days"},
      {"measurement": "50% Dissolution Time", "setting": "[1]; [5]", "value": 1, "unit": "days"},
      {"measurement": "100% Dissolution Time", "setting": "[1]; [5]", "value": 2, "unit": "days"},
      {"measurement": "50% Dissolution Time", "setting": "[1]; [6]", "value": 1, "unit": "days"},
      {"measurement": "100% Dissolution Time", "setting": "[1]; [6]", "value": 2, "unit": "days"},
      {"measurement": "50% Dissolution Time", "setting": "[1]; [7]", "value": 0.33, "unit": "days"},
      {"measurement": "100% Dissolution Time", "setting": "[1]; [7]", "value": 1, "unit": "days"},
      {"measurement": "No Accelerator Solubility, % 24 Hours", "setting": "[2]; 50° C.", "value": 14, "unit": "%"},
      {"measurement": "No Accelerator Solubility, % 48 Hours", "setting": "[2]; 50° C.", "value": 20, "unit": "%"},
      {"measurement": "No Accelerator Solubility, % 96 Hours", "setting": "[2]; 50° C.", "value": 32, "unit": "%"},
      {"measurement": "No Accelerator Solubility, % 24 Hours", "setting": "[2]; 60° C.", "value": 18, "unit": "%"},
      {"measurement": "No Accelerator Solubility, % 48 Hours", "setting": "[2]; 60° C.", "value": 24, "unit": "%"},
      {"measurement": "No Accelerator Solubility, % 96 Hours", "setting": "[2]; 60° C.", "value": 35, "unit": "%"},
      {"measurement": "No Accelerator Solubility, % 24 Hours", "setting": "[2]; 70° C.", "value": 32, "unit": "%"},
      {"measurement": "No Accelerator Solubility, % 48 Hours", "setting": "[2]; 70° C.", "value": 35, "unit": "%"},
      {"measurement": "No Accelerator Solubility, % 96 Hours", "setting": "[2]; 70° C.", "value": 51, "unit": "%"},
      {"measurement": "No Accelerator Solubility, % 24 Hours", "setting": "[2]; 80° C.", "value": 51, "unit": "%"},
      {"measurement": "No Accelerator Solubility, % 48 Hours", "setting": "[2]; 80° C.", "value": 96, "unit": "%"},
      {"measurement": "No Accelerator Solubility, % 96 Hours", "setting": "[2]; 80° C.", "value": 98, "unit": "%"},
      {"measurement": "No Accelerator Solubility, % 24 Hours", "setting": "[2]; 90° C.", "value": 89, "unit": "%"},
      {"measurement": "No Accelerator Solubility, % 48 Hours", "setting": "[2]; 90° C.", "value": 96, "unit": "%"},
      {"measurement": "No Accelerator Solubility, % 96 Hours", "setting": "[2]; 90° C.", "value": 98, "unit": "%"}
    ]}
  ]
}
